Experiment [1] addresses MMP-3 (Homo sapiens, UniProt P08254). In words: activation or inhibition of MMP-3 by substances. The class given is biochemical. On the set-up: inhibition (MMP-3): dose or concentration left out as unconfirmed. Conditions: for inhibition at 10 µM: with 10 μM.
Experiment [2] has as its system MMP-3. The experiment can be described thus: cleavage of human GH by MMP-3, SDS-PAGE, with or without protease inhibitors. The class given is biochemical. Particulars: for influence on GH cleavage by MMP-3: inhibitor added in place of phenanthroline, concentration not given. Here is the method: (§1) Human GH (SIGMA S-4776) was incubated with the recombinant catalytic domain of MMP-3 or with the activated full-length enzyme MMP-3 (EC 3.4.24.17) at a molar ratio of 50:1 at 37° C. overnight. 100 mM Tris-HCl, pH 7.5/100 mM NaCl/10 mM CaCl2/0.05% (w/v) Brij 35 served as incubation buffer. The following samples served as a control:
1. GH incubated with the same volume of buffer instead of MMP-3,
2. GH incubated with MMP-3 in the presence of 1 mM 1,10-phenanthroline (SIGMA P-9375) as MMP inhibitor.
(§2) The reaction is stopped by the addition of ¼ volume of 5 times reducing Laemmli buffer and incubation at 90° C. for 4 minutes. The samples were subsequently separated on a 15% SDS polyacrylamide gel according to a generally known method. The proteins were prepared by means of coomassie or silver staining.

In experiment [3] the test system is Human microvascular endothelial cells (HUVEC). The experiment can be described thus: proliferation of human microvascular endothelial cells (cell number, Coulter Counter). The class given is cell-based. Particulars: 24 hours. Here is the method: Human microvascular endothelial cells (HUVEC) of the 3rd passage were kindly provided by Dr. Jurgen Salvetter (Leipzig University). These cells were prepared according to the information furnished by Norman and Karasek (49). HUVEC were used up to the 9th passage for the proliferation experiments. HUVEC were tested up to confluence in RPMI 1640 medium with additions of 10% (v/v) tested endotoxin-deficient fetal calf serum (Biochrom), 2 mM L-glutamine (GIBCO), 25 μg/ml endothelial cell growth supplement (SIGMA), 50 μg/ml streptomycin plus 50 units/ml penicillin (Life Technologies). The confluent cells were harvested by means of 5% trypsin/0.2% EDTA (BIOCHROM) at 37° C. for 5 minutes. A suspension of 10,000 cells in RPMI 1640 medium plus 2% (v/v) tested endotoxin-deficient fetal calf serum (Biochrom), 2 mM L-glutamine (GIBCO), 50 μg/ml streptomycin plus 50 units/ml penicillin (Life Technologies) were transferred to 24-well plates coated with 30 μg/ml type I collagen from calf skin (IBFB). […] The cells were washed with the same medium after 24 hours of incubation and removed using trypsin/EDTA and the cell number was determined in a Coulter Counter. […]

Experiment [4] concerns the target MMP-8 (Homo sapiens, UniProt P22894). In words: cleavage of human GH by MMP-8, SDS-PAGE. It counts as biochemical. Particulars: method of Example 2. Here is the method: as §1, §2
(§3) In accordance with the method shown in Example 2, other human MMPs were also tested for checking the specificity of the GH cleavage by MMP-3.

Experiment [5] deals with T1, MMP-2 (Homo sapiens, UniProt P08253).
T1 sequence (P08253 110-660): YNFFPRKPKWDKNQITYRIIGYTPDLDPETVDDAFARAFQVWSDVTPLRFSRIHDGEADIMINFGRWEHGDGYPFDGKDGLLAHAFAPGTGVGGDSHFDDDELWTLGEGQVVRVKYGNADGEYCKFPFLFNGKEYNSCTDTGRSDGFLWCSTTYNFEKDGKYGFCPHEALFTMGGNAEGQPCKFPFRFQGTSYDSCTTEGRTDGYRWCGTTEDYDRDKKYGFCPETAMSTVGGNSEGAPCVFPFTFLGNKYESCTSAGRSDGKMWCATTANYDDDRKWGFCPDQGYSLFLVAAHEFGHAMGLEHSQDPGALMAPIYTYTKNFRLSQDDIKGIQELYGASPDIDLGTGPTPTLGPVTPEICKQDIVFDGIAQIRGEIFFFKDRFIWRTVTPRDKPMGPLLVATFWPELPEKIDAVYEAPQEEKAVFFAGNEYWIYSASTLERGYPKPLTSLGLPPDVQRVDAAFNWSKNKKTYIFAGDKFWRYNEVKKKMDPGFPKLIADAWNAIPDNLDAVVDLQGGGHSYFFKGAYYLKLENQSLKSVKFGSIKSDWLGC
The experiment can be described thus: cleavage of human GH by MMP-2. It counts as biochemical.

For experiment [6], the target named is MMP-9 (Homo sapiens, UniProt P14780). In words: cleavage of human GH by MMP-9, SDS-PAGE. Particulars: activated MMP-9; long incubation periods, different enzyme concentrations. It counts as biochemical. Here is the method:
It was tested in an informing preliminary test whether MMP-9 can cleave human GH in vitro. As shown in Example 2, GH was in this case incubated with activated MMP-9 and subjected to PAA gel electrophoresis. […]
as §1, §2, §3

In experiment [7] the target is MMP-14 (Homo sapiens, UniProt P50281). The experiment can be described thus: cleavage of human GH by MMP-14, SDS-PAGE. Particulars: method of Example 2. The class given is biochemical. Here is the method: as §1, §2, §3

Results on 11 molecules are retold here after US20040259192A1, “Method for cleaving the human growth hormone gh” (priority 2001, published 2004).

“Also recorded” adds a separate entry of the source. Square brackets hold non-standard residues; d marks the D form. Ends that are not written are not given here. * marks the point of attachment. Sta = CC(C)C[C@H](N)[C@@H](O)CC(=O)O; Isovaleryl = CC(C)CC(=O)*

Chain of MMP-3 (Homo sapiens, UniProt P08254) (P08254 100-477): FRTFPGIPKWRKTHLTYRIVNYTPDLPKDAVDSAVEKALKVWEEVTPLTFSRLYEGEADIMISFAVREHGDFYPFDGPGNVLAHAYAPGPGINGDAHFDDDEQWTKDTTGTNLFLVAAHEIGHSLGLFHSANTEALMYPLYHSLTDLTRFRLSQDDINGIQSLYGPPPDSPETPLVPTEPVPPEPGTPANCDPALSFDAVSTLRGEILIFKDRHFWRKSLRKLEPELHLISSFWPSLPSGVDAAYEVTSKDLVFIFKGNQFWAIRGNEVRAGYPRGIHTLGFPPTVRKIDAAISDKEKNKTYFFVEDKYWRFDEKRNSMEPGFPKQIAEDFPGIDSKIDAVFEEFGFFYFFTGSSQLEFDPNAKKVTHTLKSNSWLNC
Chain of MMP-9 (P14780 107-707 limits assumed): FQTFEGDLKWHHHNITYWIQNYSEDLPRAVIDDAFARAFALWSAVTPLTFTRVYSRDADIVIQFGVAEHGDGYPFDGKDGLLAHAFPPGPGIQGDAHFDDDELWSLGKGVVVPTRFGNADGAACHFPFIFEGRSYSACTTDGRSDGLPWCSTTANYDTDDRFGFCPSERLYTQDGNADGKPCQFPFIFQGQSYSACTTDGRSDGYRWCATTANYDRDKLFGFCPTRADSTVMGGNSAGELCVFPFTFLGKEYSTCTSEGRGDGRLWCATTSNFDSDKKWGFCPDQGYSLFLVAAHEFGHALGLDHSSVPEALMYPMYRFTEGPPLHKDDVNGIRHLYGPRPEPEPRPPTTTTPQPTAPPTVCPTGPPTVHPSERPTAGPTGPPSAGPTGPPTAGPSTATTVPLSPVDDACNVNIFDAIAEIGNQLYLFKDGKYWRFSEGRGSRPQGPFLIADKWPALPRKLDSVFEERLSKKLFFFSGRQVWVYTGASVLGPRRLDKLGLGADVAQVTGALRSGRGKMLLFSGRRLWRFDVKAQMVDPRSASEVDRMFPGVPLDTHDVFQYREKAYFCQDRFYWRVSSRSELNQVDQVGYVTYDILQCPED
Chain of MMP-8 (P22894 101-467): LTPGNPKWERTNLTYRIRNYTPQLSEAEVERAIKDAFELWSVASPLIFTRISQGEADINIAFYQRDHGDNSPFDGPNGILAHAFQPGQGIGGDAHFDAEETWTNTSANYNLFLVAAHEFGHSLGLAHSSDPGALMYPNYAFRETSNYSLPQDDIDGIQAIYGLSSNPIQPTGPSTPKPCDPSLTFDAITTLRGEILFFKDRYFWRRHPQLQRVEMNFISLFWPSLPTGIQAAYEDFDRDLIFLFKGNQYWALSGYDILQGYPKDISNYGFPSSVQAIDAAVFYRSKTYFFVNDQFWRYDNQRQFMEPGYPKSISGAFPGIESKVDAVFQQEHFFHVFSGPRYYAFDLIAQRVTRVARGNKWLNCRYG

In the case of `O=c1[nH]c(=O)n(CC(S)CS)c2ccccc12` (racemic) [(R,S)-1-(2′,3′-dimercapto-prop-1′-yl)quinazoline-2,4(1H,3H)-dione], testing at 4 µM in experiment [1] (with 4.0 μM) gave an inhibition of 75%. The molecule `O=c1c2ccccc2nc2n1CC(CS)S2` (racemic) [(R,S)-2-mercaptomethyl-2,3-dihydro-thiazolo[2,3-b]quinazoline-5-one] came in with an inhibition at 10 µM in experiment [1] of 50%.

As for `CC1(CS)Cn2c(nc3ccccc3c2=O)S1` (racemic) [(R,S)-2-mercaptomethyl-2-methyl-2,3-dihydro-thiazolo[2,3-b]quinazoline-5-one], the “inhibition (MMP-3)” value in experiment [1] stood at 60%. Molecule `O=c1c2ccc(Cl)cc2nc2n1CC(CS)S2` (racemic) [(R,S)-8-chloro-2-mercaptomethyl-2,3-dihydro-thiazolo[2,3-b]quinazoline-5-one] came in with an inhibition at 10 µM in experiment [1] of 80%.

On to `CC(C)C[C@H](NC(=O)[C@H]1O[C@@H]1C(=O)O)C(=O)NCCCCN=C(N)N` (relative stereo) [E-64, trans-epoxysuccinyl-L-leucylamido-(4-guanidino)butane], for which the “influence on GH cleavage by MMP-3” value in experiment [2] is on record as “no influence”. Regarding `O=S1(=O)NC(NCCS)=Nc2ccccc21` [3-(2′-mercaptoethylamino)-2H-1,2,4-benzothiadiazine-1,1-dioxide], the “activation of MMP-3” value in experiment [1] is recorded as “about 20%”. With `Cn1c(=O)n(CCCS)c(=O)c2ccccc21` [3-(3-mercaptopropyl)-1-methyl-(1H,3H)quinazoline-2,4-dione], the “activation of MMP-3” value in experiment [1] is on record as “about 20%”. Take `c1cnc2c(c1)ccc1cccnc12` [phenanthroline, 1,10-phenanthroline]: in experiment [2] (1 mM inhibitor, GH:MMP-3 50:1, 37° C. overnight, pH 7.5), the “GH cleavage by MMP-3 in the presence of inhibitor” value is reported as “not cleaved”.

Regarding “GH: Human GH, 22 kDa peptide hormone composed of a single polypeptide chain (SIGMA S-4776)”, in experiment [3] (40 ng/ml), the “proliferation of HUVEC” value is given as “marked proliferative effect”. The “cleavage of GH by MMP-8” value in experiment [4] is listed as “no degrading effect”. Further, the “cleavage of GH by MMP-2” value in experiment [5] is “no, or only minor, degradative effects”. For the same molecule, in experiment [2] (molar ratio 50:1, 37° C. overnight, pH 7.5), the “cleavage of GH by MMP-3” value was “cleaved by MMP-3 into two fragments of 16 kDa and 6 kDa; also recorded: cleaves GH into the typical 16 kDa fragment”. Moreover, the “cleavage of GH by MMP-9” value in experiment [6] is listed as “not possible to prove cleavage; also recorded: no degrading effect”. Also, the “cleavage of GH by MMP-14” value in experiment [7] is recorded as “no degrading effect”. For the molecule Isovaleryl-VV[Sta]A[Sta] [pepstatin A], in experiment [2], the “influence on GH cleavage by MMP-3” value is recorded as “no influence”.

Regarding “bFGF: human recombinant bFGF (BIOCHROM), positive control [reference compound]”, the “proliferation of HUVEC” value in experiment [3] (20 ng/ml) is reported as “stimulates the proliferation”.

A word on the inhibition: it is the relative decrease from the control value, in per cent.
